Results published in publication PMC10434001, “Glycosylated, Lipid-Binding, CDR-Like Domains of SARS-CoV-2 ORF8 Indicate Unique Sites of Immune Regulation” (Microbiology Spectrum, 2023).

Assays:
[1] = test system: glycosylated ORF8 binding to immune monocytes; test: Immune cell binding assay: peptide inhibition of glycosylated ORF8 binding to monocytes; format: cell-based; conditions: 50 μM peptide with 5 μM FITC-labeled ORF8; human monocytes; 4 h at 37°C; flow cytometry; Fig. 6C and D
[2] = test system: deglycosylated ORF8 binding to immune monocytes; test: Immune cell binding assay: peptide inhibition of deglycosylated ORF8 binding to monocytes; format: cell-based; conditions: 50 μM peptide with 5 μM FITC-labeled deglycosylated ORF8; human monocytes; 4 h at 37°C; flow cytometry; Fig. 6E and F
[3] = test system: human immune monocytes (from PBMC); test: Binding of ORF8 protein forms to immune monocytes (flow cytometry); format: cell-based
[4] = after deglycosylation (PNGase F); observation during the experiments

TNERLCVRFE [P3, 10-residue peptide derived from IL17RA (aa89-98) designed against ORF8]
inhibition of glycosylated ORF8 binding to immune cells [1]: no significant inhibitory effect | inhibition of deglycosylated ORF8 binding to immune monocytes [2]: significantly inhibited

deglycosylated ORF8: ORF8 protein treated with PNGase F enzyme overnight
binding to immune cells relative to glycosylated ORF8 ([3]; FITC-labeled ORF8, human monocytes, flow cytometry, Fig. 6A and B): 2 fold

delipidated ORF8: ORF8 protein treated with 0.5% Triton X-100 overnight
binding to human immune cells compared with ORF8 with lipid modifications ([3]; co-incubated with human PBMC cells, lipid removed with 0.5% Triton X-100 overnight, Fig. 4G and H): higher percentage of binding

glycosylated ORF8: recombinant SARS-CoV-2 ORF8 (residues 16–121, MBP/His tag) expressed in 293F cells, glycosylated at N78
binding to immune cells ([3]; FITC-labeled ORF8, 5 μM, human monocytes, flow cytometry, Fig. 6A and B): weak binding | solubility of ORF8 [4]: deteriorated
